The subject of the test is MV-4-11 cells. The test is described as follows: Gene expression microarray analysis (Affymetrix PrimeView) and GSEA. In kind it is cell-based, human. On the set-up: RFU PODN (11730768_x_at) / Fold change /veh PODN (11730768_x_at) / RFU LINC00158 (11744669_a_at) / Fold change /veh LINC00158 (11744669_a_at) / RFU DUSP10 (11751237_a_at) / Fold change /veh DUSP10 (11751237_a_at) / RFU ID3 (11757404_x_at) / Fold change /veh ID3 (11757404_x_at) / RFU PLEKHG5 (11737974_s_at) / Fold change /veh PLEKHG5 (11737974_s_at) / RFU LRRC4B (11730491_at) / Fold change /veh LRRC4B (11730491_at) / RFU GIMAP4 (11747438_a_at) / Fold change /veh GIMAP4 (11747438_a_at) / RFU KRT8 (11758183_x_at) / Fold change /veh KRT8 (11758183_x_at) / RFU CNN1 (11734310_a_at) / Fold change /veh CNN1 (11734310_a_at) / RFU VPS37D (11726825_at) / Fold change /veh VPS37D (11726825_at) / RFU C10orf10 (11716522_x_at) / Fold change /veh C10orf10 (11716522_x_at) / RFU KIR2DL2 /// KIR2DL4 /// KIR2DL5A /// KIR2DL5B /// KIR2DS1 /// KIR2DS2 /// KIR2DS3 /// KIR2DS4 /// KIR3DL3 /// KIR3DL3 /// KIR3DS1 (11738374_at) / Fold change /veh KIR2DL2 /// KIR2DL4 /// KIR2DL5A /// KIR2DL5B /// KIR2DS1 /// KIR2DS2 /// KIR2DS3 /// KIR2DS4 /// KIR3DL3 /// KIR3DL3 /// KIR3DS1 (11738374_at) / RFU C1QL1 (11718748_at) / Fold change /veh C1QL1 (11718748_at) / RFU TMPRSS4 (11747572_a_at) / Fold change /veh TMPRSS4 (11747572_a_at) / RFU HAMP (11756126_x_at) / Fold change /veh HAMP (11756126_x_at) / RFU RNFT2 (11725882_a_at) / Fold change /veh RNFT2 (11725882_a_at) / RFU NR4A2 (11747474_a_at) / Fold change /veh NR4A2 (11747474_a_at) / RFU ABCC12 (11746883_a_at) / Fold change /veh ABCC12 (11746883_a_at) / RFU TMEM136 (11760407_x_at) / Fold change /veh TMEM136 (11760407_x_at) / RFU CLDN22 /// WWC2 (11732394_at) / Fold change /veh CLDN22 /// WWC2 (11732394_at) / RFU HLA-DPB1 (11760878_x_at) / Fold change /veh HLA-DPB1 (11760878_x_at) / RFU SPINT1 (11716480_a_at) / Fold change /veh SPINT1 (11716480_a_at) / RFU GAP43 (11754022_s_at) / Fold change /veh GAP43 (11754022_s_at) / RFU A4GNT (11735810_at) / Fold change /veh A4GNT (11735810_at) / RFU PRB3 (11715151_x_at) / Fold change /veh PRB3 (11715151_x_at) / RFU TUBB4B (11761932_at) / Fold change /veh TUBB4B (11761932_at) / RFU CAPN14 (11732068_a_at) / Fold change /veh CAPN14 (11732068_a_at) / RFU TMCC2 (11721928_a_at) / Fold change /veh TMCC2 (11721928_a_at) / RFU IRGQ (11745062_a_at) / Fold change /veh IRGQ (11745062_a_at) / RFU FAM174B (11720279_a_at) / Fold change /veh FAM174B (11720279_a_at) / RFU TMPRSS4 (11748680_a_at) / Fold change /veh TMPRSS4 (11748680_a_at) / RFU FAM212B (11763350_a_at) / Fold change /veh FAM212B (11763350_a_at) / RFU PLEKHG5 (11743358_a_at) / Fold change /veh PLEKHG5 (11743358_a_at) / RFU ZSCAN30 (11745921_a_at) / Fold change /veh ZSCAN30 (11745921_a_at) / RFU CMKLR1 (11741424_a_at) / Fold change /veh CMKLR1 (11741424_a_at) / RFU LOC101060620 /// MAPK8IP1 (11723275_at) / Fold change /veh LOC101060620 /// MAPK8IP1 (11723275_at) / RFU SPTSSB (11747773_x_at) / Fold change /veh SPTSSB (11747773_x_at) / RFU PRSS12 (11739890_at) / Fold change /veh PRSS12 (11739890_at) / RFU BIN1 (11741810_x_at) / Fold change /veh BIN1 (11741810_x_at) / RFU WNT11 (11732464_a_at) / Fold change /veh WNT11 (11732464_a_at) / RFU C10orf10 (11716521_a_at) / Fold change /veh C10orf10 (11716521_a_at) / RFU C5orf56 (11738089_at) / Fold change /veh C5orf56 (11738089_at) / RFU CYB561 (11721691_x_at) / Fold change /veh CYB561 (11721691_x_at) / RFU ANKRD19P (11752326_a_at) / Fold change /veh ANKRD19P (11752326_a_at) / RFU OR2T12 /// OR2T33 /// OR2T8 (11738714_s_at) / Fold change /veh OR2T12 /// OR2T33 /// OR2T8 (11738714_s_at) / RFU VCAN (11748164_a_at) / Fold change /veh VCAN (11748164_a_at) / RFU JSRP1 (11732532_at) / Fold change /veh JSRP1 (11732532_at) / RFU KRTAP10-11 (11738290_x_at) / Fold change /veh KRTAP10-11 (11738290_x_at) / RFU MYO3A (11730013_a_at) / Fold change /veh MYO3A (11730013_a_at) / RFU EBF3 (11725865_a_at) / Fold change /veh EBF3 (11725865_a_at) / RFU CAMK2N1 (11719241_x_at) / Fold change /veh CAMK2N1 (11719241_x_at) / RFU C5orf56 (11738088_a_at) / Fold change /veh C5orf56 (11738088_a_at) / RFU OLFML3 (11715873_a_at) / Fold change /veh OLFML3 (11715873_a_at) / RFU LOC100653217 /// NTM (11731650_a_at) / Fold change /veh LOC100653217 /// NTM (11731650_a_at) / RFU MAPK11 (11762145_a_at) / Fold change /veh MAPK11 (11762145_a_at) / RFU FIZ1 (11724087_x_at) / Fold change /veh FIZ1 (11724087_x_at) / RFU OASL (11726364_x_at) / Fold change /veh OASL (11726364_x_at) / RFU SOX15 (11748057_x_at) / Fold change /veh SOX15 (11748057_x_at) / RFU CD79A (11719716_a_at) / Fold change /veh CD79A (11719716_a_at) / RFU HIST1H1D (11736915_at) / Fold change /veh HIST1H1D (11736915_at) / RFU CASKIN2 (11723855_a_at) / Fold change /veh CASKIN2 (11723855_a_at) / RFU LOC730098 (11760151_x_at) / Fold change /veh LOC730098 (11760151_x_at) / RFU OR4N2 (11742367_at) / Fold change /veh OR4N2 (11742367_at) / RFU PRRT2 (11749266_a_at) / Fold change /veh PRRT2 (11749266_a_at) / RFU SNX32 (11753110_a_at) / Fold change /veh SNX32 (11753110_a_at) / RFU CDHR5 (11726645_a_at) / Fold change /veh CDHR5 (11726645_a_at) / RFU RCAN1 (11760418_a_at) / Fold change /veh RCAN1 (11760418_a_at) / RFU FAM167A (11723789_a_at) / Fold change /veh FAM167A (11723789_a_at) / RFU FAM26E (11764081_at) / Fold change /veh FAM26E (11764081_at) / RFU ISYNA1 (11749810_s_at) / Fold change /veh ISYNA1 (11749810_s_at) / RFU ACY1 (11761880_at) / Fold change /veh ACY1 (11761880_at) / RFU 11764098_at / Fold change /veh 11764098_at / RFU SAMD14 (11745864_x_at) / Fold change /veh SAMD14 (11745864_x_at) / RFU NPB (11741838_a_at) / Fold change /veh NPB (11741838_a_at) / RFU TMPRSS6 (11731388_a_at) / Fold change /veh TMPRSS6 (11731388_a_at) / RFU KRTAP10-2 (11738614_at) / Fold change /veh KRTAP10-2 (11738614_at) / RFU ARHGAP8 /// PRR5-ARHGAP8 (11727945_x_at) / Fold change /veh ARHGAP8 /// PRR5-ARHGAP8 (11727945_x_at) / RFU KRTAP5-7 /// NADSYN1 (11734609_at) / Fold change /veh KRTAP5-7 /// NADSYN1 (11734609_at) / RFU RASL12 (11751679_a_at) / Fold change /veh RASL12 (11751679_a_at) / RFU CDKN2B (11736163_a_at) / Fold change /veh CDKN2B (11736163_a_at) / RFU PRF1 (11729649_at) / Fold change /veh PRF1 (11729649_at) / RFU, ZNF638 /// ZNF638-IT1 / Fold change vs veh, ZNF638 /// ZNF638-IT1 / RFU, PANK3 / Fold change vs veh, PANK3 / RFU, SH3YL1 / Fold change vs veh, SH3YL1 / RFU, ZEB2 / Fold change vs veh, ZEB2 / RFU, NRIP1 / Fold change vs veh, NRIP1 / RFU, PTTG1IP / Fold change vs veh, PTTG1IP / RFU, CAPN2 / Fold change vs veh, CAPN2 / RFU, MED14 / Fold change vs veh, MED14 / RFU, SNORA58 / Fold change vs veh, SNORA58 / RFU, C1orf63 / Fold change vs veh, C1orf63 / RFU, LRRFIP1 / Fold change vs veh, LRRFIP1 / RFU, NDUFAF7 / Fold change vs veh, NDUFAF7 / RFU, SLC12A2 / Fold change vs veh, SLC12A2 / RFU, IBTK / Fold change vs veh, IBTK / RFU, ESF1 / Fold change vs veh, ESF1 / Fold change vs veh, TMEM50B / RFU, TAOK1 / Fold change vs veh, TAOK1 / RFU, ACBD3 / Fold change vs veh, ACBD3 / RFU, TMA16 / Fold change vs veh, TMA16 / RFU, RWDD3 / Fold change vs veh, RWDD3 / RFU, BCAT1 / Fold change vs veh, BCAT1 / RFU, EDEM3 / Fold change vs veh, EDEM3 / RFU, TMEM33 / Fold change vs veh, TMEM33 / RFU, WDR75 / Fold change vs veh, WDR75 / RFU, AHCTF1 / Fold change vs veh, AHCTF1 / RFU, TFRC / Fold change vs veh, TFRC / RFU, ZDHHC17 / Fold change vs veh, ZDHHC17 / RFU, NOM1 / Fold change vs veh, NOM1 / RFU, ARL8B / Fold change vs veh, ARL8B / RFU, ZBTB11 / Fold change vs veh, ZBTB11 / RFU, TAMM41 / Fold change vs veh, TAMM41 / RFU, KIAA1704 /// LOC100996395 / Fold change vs veh, KIAA1704 /// LOC100996395 / RFU, ING1 / Fold change vs veh, ING1 / RFU, TRMT61B / Fold change vs veh, TRMT61B / RFU, FUBP3 / Fold change vs veh, FUBP3 / RFU, TP53 / Fold change vs veh, TP53 / RFU, TNKS2 / Fold change vs veh, TNKS2 / RFU, ZFP14 / Fold change vs veh, ZFP14 / RFU, ACTR2 / Fold change vs veh, ACTR2 / RFU, PPP3R1 / Fold change vs veh, PPP3R1 / RFU, PIK3R1 / Fold change vs veh, PIK3R1 / RFU, HNRNPA1 / Fold change vs veh, HNRNPA1 / RFU, RNF170 / Fold change vs veh, RNF170 / RFU, ZNF28 / Fold change vs veh, ZNF28 / RFU, RNGTT / Fold change vs veh, RNGTT / RFU, OGT / Fold change vs veh, OGT / RFU, BRD1 / Fold change vs veh, BRD1 / RFU, MARS / Fold change vs veh, MARS / RFU, ZNF655 / Fold change vs veh, ZNF655 / RFU, FAHD1 / Fold change vs veh, FAHD1 / RFU, BDP1 / Fold change vs veh, BDP1 / RFU, LRRCC1 / Fold change vs veh, LRRCC1 / RFU, ARID1A / Fold change vs veh, ARID1A / RFU, ZNF146 / Fold change vs veh, ZNF146 / RFU, ZNF330 / Fold change vs veh, ZNF330 / RFU, GPN3 / Fold change vs veh, GPN3 / RFU, C9orf123 / Fold change vs veh, C9orf123 / RFU, N4BP2L2 / Fold change vs veh, N4BP2L2 / RFU, ARFIP1 / Fold change vs veh, ARFIP1 / RFU, FAM179B / Fold change vs veh, FAM179B / RFU, BCL10 / Fold change vs veh, BCL10 / RFU, UHRF1BP1L / Fold change vs veh, UHRF1BP1L / RFU, BET1 / Fold change vs veh, BET1 / RFU, CNOT2 / Fold change vs veh, CNOT2 / RFU, ZNF268 / Fold change vs veh, ZNF268 / Fold change vs veh, ZNF507 / RFU, DGCR2 / Fold change vs veh, DGCR2 / RFU, WDSUB1 / Fold change vs veh, WDSUB1 / Fold change vs veh, HSP90B1 /// MIR3652 / RFU, ADSS / Fold change vs veh, ADSS / RFU, GK / Fold change vs veh, GK / RFU, ZNF148 / Fold change vs veh, ZNF148 / RFU, TAF9 / Fold change vs veh, TAF9 / RFU, SLC1A5 / Fold change vs veh, SLC1A5 / RFU, SLMO2 / Fold change vs veh, SLMO2 / RFU, ABCC4 / Fold change vs veh, ABCC4 / RFU, LOC101060439 /// RAP1B / Fold change vs veh, LOC101060439 /// RAP1B / RFU, RFX7 / Fold change vs veh, RFX7 / RFU, GTPBP10 / Fold change vs veh, GTPBP10 / RFU, CNEP1R1 / Fold change vs veh, CNEP1R1 / RFU, BIVM-ERCC5 /// ERCC5 / Fold change vs veh, BIVM-ERCC5 /// ERCC5 / RFU, ILF3 / Fold change vs veh, ILF3 / RFU 11762660_at / Fold change /veh 11762660_at / RFU VCAN (11757783_s_at) / Fold change /veh VCAN (11757783_s_at) / RFU DDX43 (11728927_at) / Fold change /veh DDX43 (11728927_at) / RFU KRT8 (11758188_x_at) / Fold change /veh KRT8 (11758188_x_at) / RFU NKD1 (11759106_at) / Fold change /veh NKD1 (11759106_at) / RFU SRD5A1 (11742802_a_at) / Fold change /veh SRD5A1 (11742802_a_at) / RFU TPSAB1 /// TPSB2 (11721975_s_at) / Fold change /veh TPSAB1 /// TPSB2 (11721975_s_at) / RFU GSTM3 (11746129_a_at) / Fold change /veh GSTM3 (11746129_a_at) / RFU IL23R (11737362_x_at) / Fold change /veh IL23R (11737362_x_at) / RFU TMEM51 (11727254_a_at) / Fold change /veh TMEM51 (11727254_a_at) / RFU PIWIL2 (11732686_x_at) / Fold change /veh PIWIL2 (11732686_x_at) / RFU ORM1 (11744905_x_at) / Fold change /veh ORM1 (11744905_x_at) / RFU CCDC152 (11743942_at) / Fold change /veh CCDC152 (11743942_at) / RFU ECM1 (11717891_a_at) / Fold change /veh ECM1 (11717891_a_at) / RFU IL23R (11748794_a_at) / Fold change /veh IL23R (11748794_a_at) / RFU TNFAIP8L3 (11732012_x_at) / Fold change /veh TNFAIP8L3 (11732012_x_at) / RFU MBOAT4 (11741988_at) / Fold change /veh MBOAT4 (11741988_at) / RFU 11764193_at / Fold change /veh 11764193_at / RFU TMEM53 (11763286_at) / Fold change /veh TMEM53 (11763286_at) / RFU MAGEB2 (11727129_at) / Fold change /veh MAGEB2 (11727129_at) / RFU TMEM200A (11744735_a_at) / Fold change /veh TMEM200A (11744735_a_at) / RFU CCDC152 (11751479_a_at) / Fold change /veh CCDC152 (11751479_a_at) / RFU FAM211A (11726209_a_at) / Fold change /veh FAM211A (11726209_a_at) / RFU RGS16 (11746705_a_at) / Fold change /veh RGS16 (11746705_a_at) / RFU VCAN (11755009_s_at) / Fold change /veh VCAN (11755009_s_at) / RFU RHOB (11743442_s_at) / Fold change /veh RHOB (11743442_s_at) / RFU RGS16 (11720943_a_at) / Fold change /veh RGS16 (11720943_a_at) / RFU RGS16 (11720944_at) / Fold change /veh RGS16 (11720944_at) / RFU, VPS4B / Fold change vs veh, VPS4B / RFU, CREB1 / Fold change vs veh, CREB1 / RFU, DNAJC13 / Fold change vs veh, DNAJC13 / RFU, GNAQ / Fold change vs veh, GNAQ / RFU, CDK5R1 / Fold change vs veh, CDK5R1 / RFU, ZRANB3 / Fold change vs veh, ZRANB3 / RFU, CUL4A / Fold change vs veh, CUL4A / RFU, CCNY / Fold change vs veh, CCNY / RFU, UFL1 / Fold change vs veh, UFL1 / RFU, COG3 / Fold change vs veh, COG3 / RFU, DIAPH2 / Fold change vs veh, DIAPH2 / RFU, SKA2 / Fold change vs veh, SKA2 / RFU, AFF3 / Fold change vs veh, AFF3 / RFU, LMF1 / Fold change vs veh, LMF1 / RFU, IPO11 / Fold change vs veh, IPO11 / RFU, DFFB / Fold change vs veh, DFFB / RFU, FOXP1 / Fold change vs veh, FOXP1 / RFU, CARD8 / Fold change vs veh, CARD8 / RFU, STRN3 / Fold change vs veh, STRN3 / RFU, ADK / Fold change vs veh, ADK / RFU, RASSF2 / Fold change vs veh, RASSF2 / RFU, WIPF1 / Fold change vs veh, WIPF1 / RFU, LARP1B / Fold change vs veh, LARP1B / RFU, RASA1 / Fold change vs veh, RASA1 / RFU, RB1 / Fold change vs veh, RB1 / RFU, PPFIA1 / Fold change vs veh, PPFIA1 / RFU, MAT2A / Fold change vs veh, MAT2A / RFU, CCT5 / Fold change vs veh, CCT5 / RFU, WDR92 / Fold change vs veh, WDR92 / RFU, CUX1 / Fold change vs veh, CUX1 / RFU, TTC7A / Fold change vs veh, TTC7A / RFU, TMEM135 / Fold change vs veh, TMEM135 / RFU, DEPTOR / Fold change vs veh, DEPTOR / RFU, CPM / Fold change vs veh, CPM / RFU, DNAJB6 / Fold change vs veh, DNAJB6 / RFU, CACNA2D3 / Fold change vs veh, CACNA2D3 / RFU, DTX4 / Fold change vs veh, DTX4 / RFU, TFCP2 / Fold change vs veh, TFCP2 / RFU, GMCL1 /// GMCL1P1 / Fold change vs veh, GMCL1 /// GMCL1P1 / RFU, AEBP2 / Fold change vs veh, AEBP2 / RFU, SNHG1 /// SNORD22 /// SNORD25 /// SNORD26 /// SNORD27 /// SNORD28 /// SNORD29 /// SNORD31 / Fold change vs veh, SNHG1 /// SNORD22 /// SNORD25 /// SNORD26 /// SNORD27 /// SNORD28 /// SNORD29 /// SNORD31 / Fold change (Aza/veh), C12orf56 (ProbeSet 11735607_a_at) / Fold change (ACY-1035/veh), C12orf56 (ProbeSet 11735607_a_at) / Fold change (Aza/veh), FGFR1OP (ProbeSet 11751329_s_at) / Fold change (ACY-1035/veh), FGFR1OP (ProbeSet 11751329_s_at) / Fold change (Aza/veh), VPS36 (ProbeSet 11739960_a_at) / Fold change (ACY-1035/veh), VPS36 (ProbeSet 11739960_a_at) / RFU SYPL1 (11715823_x_at) / Fold change /veh SYPL1 (11715823_x_at) / RFU IGFBP7 (11715501_s_at) / Fold change /veh IGFBP7 (11715501_s_at) / RFU REEP3 (11722064_at) / Fold change /veh REEP3 (11722064_at) / RFU IGLL1 (11728026_x_at) / Fold change /veh IGLL1 (11728026_x_at): dose or concentration left out as unconfirmed. As to conditions: MV-4-11 cells, 48 hours.

Turning to `Nc1ncn([C@@H]2O[C@H](CO)[C@@H](O)[C@H]2O)c(=O)n1` [azacitidine], the “Fold change /veh TMPRSS4 (11748680_a_at)” value came out at 0.94.

Source of the values: paper PMC5218480 (PLoS ONE, 2017).
